From patent US11130741B2 (Bioimics AB, priority 2016, dated 2021)
≈ marks a conversion by molar mass, not a printed value. Read-outs that look alike come from different tables or passages of the source.

What was measured:
[1] = tested on: Staphylococcus aureus subsp. aureus (ATCC29213); test: MIC, broth microdilution (CLSI), Staphylococcus aureus subsp. aureus ATCC29213; assay type: cell-based; settings: ATCC29213, Table 15, read-out: S. aureus ("wound") (MIC)
[2] = tested on: Escherichia coli (ATCC25922); test: MIC, broth microdilution (CLSI), Escherichia coli ATCC25922
Method: Initial minimal inhibitory concentration (MIC) tests were made on two bacterial strains: • Escherichia coli (ATCC25922) • Staphylococcus aureus (ATCC25923).
Minimal Inhibitory Concentration (MIC)
MIC values were determined using the standard broth microdilution procedure based on the guidelines by the Clinical and Laboratory Standards Institute (CLSI). Briefly, the compounds were dissolved in DMSO to 10 mM. They were diluted in cation-adjusted Mueller-Hinton broth (CAMHB) to four times the highest concentration tested. A serial 2-fold dilution in CAMHB was done in microdilution plates. The inoculum of bacterial strain to be tested was prepared by making a suspension of colonies from an 18 to 24 hours old plate in CAMHB. The inoculum was diluted so that, after inoculation, each well contained approximately 5×10^5 CFU/mL. To a volume of 50 μl compound in CAMHB an equal volume of inoculum was added. The tray was sealed in a plastic bag and incubated at 35° C. for 16 to 20 hours. To aid in the detection of growth the dye resazurin was added to a final concentration 0.001% and incubated at room temperature for 1 h. Reduction of resazurin, and therefore bacterial growth, was seen as a change from blue to pink.

[3] = ATCC25922, read-out: E. coli MIC, Table 15, NI = No inhibition
[4] = ATCC25922, read-out: E. coli MIC

| Compound | MIC [1] | MIC [2, 3] | MIC [2, 4] |
| --- | --- | --- | --- |
| NC1CCCC(C(=O)Nc2cc(C(F)(F)F)cc3c2Nc2ccc(N4CCNCC4)cc2S3)C1 (stereo not shown) [compound 256, 3-amino-N-(7-(piperazin-1-yl)-3-(trifluoromethyl)-10H-phenothiazin-1-yl)cyclohexane-1-carboxamide] | 16 µg/mL (≈ 32.5 µM) | 32 µg/mL (≈ 65.1 µM) |  |
| Cl.Cl.NCCN1CCC(Nc2cc(C(F)(F)F)cc3c2Nc2ccc(Br)cc2S3)CC1 [compound 282, N-(1-(2-aminoethyl)piperidin-4-yl)-7-bromo-3-(trifluoromethyl)-10H-phenothiazin-1-amine hydrochloride] | 4 µg/mL | 8 µg/mL |  |
| FC(F)(F)c1cc(NC2CCNCC2)c2c(c1)Sc1cccnc1N2 [compound 264, N-(piperidin-4-yl)-7-(trifluoromethyl)-10H-benzo[b] pyrido[2,3-e] [1,4]thiazin-9-amine] | 8 µg/mL (≈ 21.8 µM) | 16 µg/mL (≈ 43.7 µM) |  |
| Cl.NCCN1CCC(Nc2cc(C(F)(F)F)cc3c2Nc2cc(Br)ccc2S3)CC1 [compound 352, N-(1-(2-aminoethyl)piperidin-4-yl)-8-bromo-3-(trifluoromethyl)-10H-phenothiazin-1-amine hydrochloride] | 4 µg/mL | 8 µg/mL |  |
| Cl.NCCNCCCNc1cc(C(F)(F)F)cc2c1Nc1ccc(N3CC4CCC3C4)cc1S2 (stereo not shown) [compound 350, N1-(7-(2-azabicyclo[2.2.1]heptan-2-yl)-3-(trifluoromethyl)-10H-phenothiazin-1-yl)-N3-(2-aminoethyl) propane-1,3-diamine hydrochloride] | 4 µg/mL | 8 µg/mL |  |
| Cl.Cl.NCCN1CCC(Nc2cc(C(F)(F)F)cc3c2Nc2ccc(C4CCCC4)cc2S3)CC1 [compound 354, N-(1-(2-aminoethyl)piperidin-4-yl)-7-cyclopentyl-3-(trifluoromethyl)-10H-phenothiazin-1-amine hydrochloride] | 1 µg/mL | 8 µg/mL |  |
| Cl.NCCNCCCNc1cc(C(F)(F)F)cc2c1Nc1ccc(N3CC4(CCC4)C3)cc1S2 [compound 347, N1-(7-(2-azaspiro[3.3]heptan-2-yl)-3-(trifluoromethyl)-10H-phenothiazin-1-yl)-N3-(2-aminoethyl) propane-1,3-diamine hydrochloride] | 4 µg/mL | 8 µg/mL |  |
| CC1CC(C)N(c2ccc3c(c2)Sc2cc(C(F)(F)F)cc(NCCCNCCN)c2N3)C1.Cl (stereo not shown) [compound 349, N1-(2-aminoethyl)-N3-(7-(2,4-dimethyl-pyrrolidin-1-yl)-3-(trifluoromethyl)-10H-phenothiazin-1-yl)propane-1,3-diamine hydrochloride] | 4 µg/mL | 16 µg/mL |  |
| Cl.NCCCNc1cc(C(F)(F)F)cc2c1Nc1ccc(Br)cc1S2 [compound 333, N1-(7-bromo-3-(trifluoromethyl)-10H-phenothiazin-1-yl)propane-1,3-diamine hydrochloride] | 8 µg/mL | 16 µg/mL |  |
| Cl.Cl.N#Cc1ccc2c(c1)Sc1cc(C(F)(F)F)cc(NC(=O)CCNCCN)c1N2 [compound 304, 3-((2-aminoethyl)amino)-N-(7-cyano-3-(trifluoromethyl)-10H-phenothiazin-1-yl)propanamide hydrochloride] | 16 µg/mL | 32 µg/mL |  |
| COC1CCCN(c2ccc3c(c2)Sc2cc(C(F)(F)F)cc(NC4CCN(CCN)CC4)c2N3)C1.Cl (stereo not shown) [compound 326, N-(1-(2-aminoethyl)piperidin-4-yl)-7-(3-methoxy-piperidin-1-yl)-3-(trifluoromethyl)-10H-phenothiazin-1-amine hydrochloride] | 8 µg/mL | 16 µg/mL |  |
| FC(F)(F)c1cc(NC2CC3CCC(C2)N3)c2c(c1)Sc1ccccc1N2 (stereo not shown) [compound 290, N-(8-azabicyclo[3.2.1]octan-3-yl)-3-(trifluoromethyl)-10H-phenothiazin-1-amine] | 8 µg/mL (≈ 20.4 µM) | 32 µg/mL (≈ 81.7 µM) |  |
| Cl.NCCOCCCNc1cc(C(F)(F)F)cc2c1Nc1ccc(Br)cc1S2 [compound 344, N-(3-(2-aminoethoxy)propyl)-7-bromo-3-(trifluoromethyl)-10H-phenothiazin-1-amine hydrochloride] | 8 µg/mL | 16 µg/mL |  |
| CC1CC(C)N(c2ccc3c(c2)Sc2cc(C(F)(F)F)cc(NC4CCN(CCN)CC4)c2N3)C1.Cl.Cl (stereo not shown) [compound 341, N-(1-(2-aminoethyl)piperidin-4-yl)-7-(2,4-dimethyl-pyrrolidin-1-yl)-3-(trifluoromethyl)-10H-phenothiazin-1-amine hydrochloride] | 1 µg/mL | 8 µg/mL |  |
| Cl.NCCNCCCNc1cc(C(F)(F)F)cc2c1Nc1cc(Br)ccc1S2 [compound 355, N1-(2-aminoethyl)-N3-(8-bromo-3-(trifluoromethyl)-10H-phenothiazin-1-yl)propane-1,3-diamine hydrochloride] | 4 µg/mL | 8 µg/mL |  |
| Cl.Cl.Cl.NCCCN1c2ccc(N3CCCC3)cc2Sc2cc(N3CCN(CCN)CC3)ccc21 [compound 291, 3-(3-(4-(2-aminoethyl)piperazin-1-yl)-7-(pyrrolidin-1-yl)-10H-phenothiazin-10-yl)propan-1-amine hydrochloride] | 16 µg/mL | 128 µg/mL |  |

| Compound | MIC [1] | MIC [2, 3] | MIC [2, 4] |
| --- | --- | --- | --- |
| FC(F)(F)c1cc(NC2CCNCC2)c2c(c1)SC1CCCCC1N2 (stereo not shown) [compound 259, N-(piperidin-4-yl)-7-(trifluoromethyl)-2,3,4,4a,10,10a-hexahydro-1H-phenothiazin-9-amine] | 16 µg/mL (≈ 43.1 µM) | 64 µg/mL (≈ 172 µM) |  |
| Cl.Cl.NCCN1CCC(Nc2cc(C(F)(F)F)cc3c2Nc2ccc(N4CCc5ccccc54)cc2S3)CC1 [compound 310, N-(1-(2-aminoethyl)piperidin-4-yl)-7-(indolin-1-yl)-3-(trifluoromethyl)-10H-phenothiazin-1-amine hydrochloride] | 8 µg/mL | 128 µg/mL |  |
| CCN(C)c1ccc2c(c1)Sc1cc(C(F)(F)F)cc(NCCCNCCN)c1N2.Cl.Cl [compound 348, N1-(3-((2-aminoethyl)amino)propyl)-N7-ethyl-N7-methyl-3-(trifluoromethyl)-10H-phenothiazine-1,7-diamine hydrochloride] | 4 µg/mL | 32 µg/mL |  |
| CCN(C)c1ccc2c(c1)Sc1cc(C(F)(F)F)cc(NC3CCN(CCN)CC3)c1N2.Cl.Cl [compound 339, N1-(1-(2-aminoethyl)piperidin-4-yl)-N7-ethyl-N7-methyl-3-(trifluoromethyl)-10H-phenothiazine-1,7-diamine hydrochloride] | 4 µg/mL | 8 µg/mL |  |
| Cl.NCCN1CCC(Nc2cc(C(F)(F)F)cc3c2Nc2cc(N4CCCC4)ccc2S3)CC1 [compound 356, N-(1-(2-aminoethyl)piperidin-4-yl)-8-(pyrrolidin-1-yl)-3-(trifluoromethyl)-10H-phenothiazin-1-amine hydrochloride] | 16 µg/mL | 32 µg/mL |  |
| Cc1cc(NC2CCN(CCN)CC2)c2c(c1)Sc1cc(Br)ccc1N2.Cl [compound 329, N-(1-(2-aminoethyl)piperidin-4-yl)-7-bromo-3-methyl-10H-phenothiazin-1-amine hydrochloride] | 16 µg/mL | 64 µg/mL |  |
| Cl.Cl.NCCCN1c2ccc(C(=O)O)cc2Sc2cc(N3CCN(CCN)CC3)ccc21 [compound 277, 7-(4-(2-aminoethyl)piperazin-1-yl)-10-(3-aminopropyl)-10H-phenothiazine-3-carboxylic acid hydrochloride] | > 128 µg/mL |  | > 128 µg/mL |
| CN(C)c1ccc2c(c1)Sc1cc(C(F)(F)F)cc(NC3CCN(CCN)CC3)c1N2.Cl [compound 334] | 4 µg/mL | 16 µg/mL |  |
| Cl.NCCNCCCNc1cc(C(F)(F)F)cc2c1Nc1ccc(C3=CCCC3)cc1S2 [compound 358, N1-(2-aminoethyl)-N3-(7-(cyclopent-1-en-1-yl)-3-(trifluoromethyl)-10H-phenothiazin-1-yl) propane-1,3-diaminehydrochloride] | 16 µg/mL | 16 µg/mL |  |
| CN(C)CCNCC(=O)CNc1cc(C(F)(F)F)cc2c1Nc1ccc(N3CCCC3)cc1S2.Cl.Cl [compound 323, 1-((2-(dimethyl-amino)ethyl)amino)-3-((7-(pyrrolidin-1-yl)-3-(trifluoromethyl)-10H-phenothiazin-1-yl)amino) propan-2-one hydrochloride] | 128 µg/mL |  | > 128 µg/mL |
| Cl.NCCN1CCC(Nc2cc(C(F)(F)F)cc3c2Nc2ccc(N4CCC(C(N)=O)C4)cc2S3)CC1 (stereo not shown) [compound 338, 1-(9-((1-(2-aminoethyl)piperidin-4-yl)amino)-7-(trifluoromethyl)-10H-phenothiazin-3-yl)pyrrolidine-3-carboxamide hydrochloride] | 4 µg/mL | 64 µg/mL |  |
| NC1CCCC(C(=O)Nc2cc(C(F)(F)F)cc3c2Nc2ncccc2S3)C1 (stereo not shown) [compound 263, 3-amino-N-(7-(trifluoromethyl)-10H-benzo[b]pyrido[2,3-e] [1,4]thiazin-9-yl)cyclohexane-1-carboxamide] | 64 µg/mL (≈ 157 µM) | 64 µg/mL (≈ 157 µM) |  |
| CC1CN(c2ccc3c(c2)Sc2cc(Br)ccc2N3CCCN)CC(C)O1.Cl (stereo not shown) [compound 279, 3-(3-bromo-7-(2,6-dimethyl-morpholino)-10H-phenothiazin-10-yl)propan-1-amine hydrochloride] | 16 µg/mL | 128 µg/mL |  |
| CC(C)C1CCCN(c2ccc3c(c2)Sc2cc(C(F)(F)F)cc(NC4CCN(CCN)CC4)c2N3)C1.Cl.Cl.Cl (stereo not shown) [compound 320, N-(1-(2-aminoethyl)piperidin-4-yl)-7-(3-isopropyl-piperidin-1-yl)-3-(trifluoromethyl)-10H-phenothiazin-1-amine hydrochloride] | 4 µg/mL | 32 µg/mL |  |
| Cl.NCCNCCCNc1cc(C(F)(F)F)cc2c1Nc1ccc(N3CCC4CCCC43)cc1S2 (stereo not shown) [compound 351, N1-(2-aminoethyl)-N3-(7-(hexahydro-cyclopenta[b]pyrrol-1(2H)-yl)-3-(trifluoromethyl)-10H-phenothiazin-1-yl)propane-1,3-diamine hydrochloride] | 4 µg/mL | 16 µg/mL |  |
| Cl.Cl.NCCN1CCC(Nc2cc(C(=O)N3CCCC3)cc3c2Nc2ccccc2S3)CC1 [compound 288, (1-(1-(2-aminoethyl)piperidin-4-ylamino)-10H-phenothiazin-3-yl)(pyrrolidin-1-yl)methanone] | 128 µg/mL |  | 128 µg/mL |
